Reference: patent US20120128728A1 (NOVARTIS PHARMA AG, priority 2005, published 2012)

Legend:
fungus = experiment: Minimum inhibitory concentration (MIC)
Method: The MIC may be expressed as a particular concentration value or as a range of concentrations. […] As used herein, unless otherwise specified, the MIC value shall be taken to be the particular value when a particular MIC value is determined and shall be taken to be a midrange value when a range of MIC values is determined. MIC determinations may be made according to processes known in the art.

in vivo [1] = experiment: in vivo; design: species or system dogs; settings: both sexes, dog
From the text: On Study Days 1 and 14, blood samples for toxicokinetic analysis were obtained from designated animals in the vehicle and high-dose groups before exposure and 2, 4, 8, 12, and 24 hr after exposure, and daily during the 14-day recovery period. Main-study animals were euthanized and necropsied on day 15, recovery animals on day 29, during which the right anterior lobe of each animal was obtained for toxicokinetic analysis.

[2] = One month inhalation toxicity study in rats
Method: (§2) The animals were dosed using a snout only exposure technique for about 60 min on 5 occasions at weekly intervals. Recovery animals were retained for an approximate one month recovery period.
(§3) The following investigations were performed: clinical observations, body weight, food consumption, ophthalmology, hematology, clinical chemistry, urinalysis, histopathology, and toxicokinetics.

in vivo [3] = experiment: in vivo; design: species or system rabbits; settings: rabbit
Method: This Example describes results obtained in the plasma and lung tissue only.
The lot number of the formulation was N020042. The test powder was hand-filled into blister packs and contact sealed at 340° F. for 1.0 second, with an approximate fill weight of approximately 1.5 mg per blister pack.
(§1) The test inhalation was administered in a single inhalation exposure.
The study included two groups each comprised of 48 rabbits. […] Four animals were sacrificed at each of the following time points after dosing: 0.16, 0.3, 1, 1.3, 2, 3, 4, 5, 14, 21, 28, and 45 days. Plasma and lung tissue were collected and analyzed for amphotericin B content using LC/MS-MS. Lower limits of quantitation (LLQ) of the assays were 5 ng/mL in plasma and 20 ng/g in lung tissue.

[4] = Toxicity of two dry powders in beagle dogs, once weekly inhalation (Example 17); assay type: in vivo
Method: The animals were dosed using a close fitting face mask (fitted with a mouth tube) system for 30 min per day according to Table 15, above.

[5] = Toxicity of two dry powders in rats with daily or weekly dosing (Example 16); assay type: in vivo
Method: The following investigations were performed: clinical observations, body weight, respiratory measurements, hematology, clinical chemistry, histopathology, toxicokinetics, and bioanalytical chemistry.

[6] = Fourteen-day inhalation toxicity/toxicokinetic study in rats; assay type: in vivo; settings: both sexes, rat, lung tissue, inhaled, recovery period, read-out: lung tissue elimination half-life (t1/2) (converted)
Method: Recovery animals were retained for a 14-day postdose recovery period. On study days 1 and 14, blood samples for toxicokinetic analysis were obtained from designated animals in the vehicle only and high-dose (25 mg/kg) groups at predose, 2 hr postdose, and 4 hr postdose. Toxicokinetic blood samples were also obtained during the 14-day recovery period on recovery Days 7 and 14 for males, and on recovery Day 14 only for females due to their lower body weight.
All study animals were subjected to a detailed necropsy on completion of the 14-day treatment period (Day 15) or completion of the 14-day recovery period (Day 29). During necropsy, lung tissue samples for toxicokinetic analysis were obtained from each animal.

[7] = Dry powder toxicology study in rats with daily or weekly dosing (Example 15); assay type: in vivo; settings: dosages up to 30.60 mg/kg/dose amphotericin B alone
Method: The information obtained was used to select dose levels and/or dose regimens for subsequent toxicity studies.
The following investigations were performed: clinical observations, body weight, hematology, clinical chemistry, organ weight, histopathology, toxicokinetics, and bioanalytical chemistry.

[8] = test system: Aspergillus fumigatus, NIH strain 4215; experiment: Efficacy of inhaled amphotericin B for prophylaxis in rabbits (Example 13); assay type: in vivo, New Zealand White SPF rabbits; settings: for survival rate: day 14
Method: The test powder was hand-filled into blister packs and contact sealed at 340° F. for 1.0 second, with an approximate fill weight of approximately 1.5 mg per blister pack.
as §1
Aspergillus fumigatus, NIH strain 4215, was obtained from American Type Culture Collection (ATCC). Inoculum of A. fumigatus was prepared on Sabouraud dextrose flasks. Conidia were harvested with a solution of 0.025% Tween 20 in 0.9% sodium chloride, transferred to a conical tube, washed, and counted. The concentration was adjusted with the same solution to achieve 5×10^7 conidia in 300 μL. Animals in challenged groups were inoculated with the same volume. Inoculation was performed on anesthetized rabbits. Rabbits were intubated using an endotracheal tube and the inoculum was then administered intratracheally with a tuberculin syringe attached to a catheter introduced through the endotracheal tube.
The study included 6 groups each comprised of 10 rabbits. These groups are described in Table 6, below. All groups were immunosuppressed and treated with antibiotics to prevent bacterial infections. The immunosuppression and antibiotic cover regimen is detailed in Table 7, below.

Aspergillus fumigatus = test system: Aspergillus fumigatus
Method: This study had three groups, with 10 rabbits each. Group 1 received the immunosuppressive regimen of intravenous cytarabine and methyl prednisolone and a sham saline inoculation. Group 2 received the immunosuppressive regimen and 5×10^7 conidia of A. fumigatus. […] The immunosuppressive agents were administered by intravenous injection. Antibiotics to prevent bacterial infections were administered by intravenous injection or in the drinking water.
Evaluations performed in this study included mortality and morbidity, daily clinical observations, body weights, clinical pathology (hematology and clinical chemistry), gross necropsy, lung weight, enumeration of visible lung infarctions, fungal colony forming unit (CFU) measurements in BAL, blood, and lung tissue samples, and histopathological evaluation of lung tissue.
There were 3 study groups with 10 rabbits in each group in this experiment. Group 1 received the immunosuppressive regimen of intravenous cytarabine and methyl prednisolone and a sham saline inoculation. Group 2 received the immunosuppressive regimen and 5×10^7 conidia of A. fumigatus.
New Zealand White SPF rabbits that were dual catheterized with vascular access ports (VAPs) and weighing between 2.5 to 4.0 kg at study initiation were used. The rabbits were randomly assigned to treatment groups using a computerized body weight stratification procedure.
In this regard, powder from a blister pack was actuated from the inhaler into a chamber. The small animal ventilator pushed the dispersed powder into an endotracheal tube. The delivery efficiency to the animal was determined by measuring the gravimetric mass of the powder collected on a filter connected to the end of the endotracheal tube. The mass collected on the filter was normalized to the actual blister pack fill weight. The delivery efficiency was used to calculate the estimated dose (mg) for the in vivo experiments.

[9] = rat, in vivo
Method: as §2, §3

[10] = Group 3: 1.5 mg/kg inhaled at day −12
[11] = Group 4: 0.15 mg/kg inhaled at day −1
[12] = Group 5: 0.5 mg/kg inhaled at day −1
[13] = Group 6: 1.5 mg/kg inhaled at Day −1
[14] = Group 3: 1.5 mg/kg inhaled 1 day before 5×10^7 conidia

In the case of `C[C@@H]1[C@H](O)[C@@H](C)/C=C/C=C/C=C/C=C/C=C/C=C/C=C/[C@H](O[C@@H]2O[C@H](C)[C@@H](O)[C@H](N)[C@@H]2O)C[C@@H]2O[C@](O)(C[C@@H](O)C[C@@H](O)[C@H](O)CC[C@@H](O)C[C@@H](O)CC(=O)O[C@H]1C)C[C@H](O)[C@H]2C(=O)O` [amphotericin B], the “midrange MIC value” (fungus) is reported as “about 2.25 μg/g”, the half-life (in vivo [1]) is reported as 18.8 days and the “mortalities during the study” value ([2]; 198 M and 198 F rats, one death pretrial) is reported as 181. For the same molecule, the “animals with pneumonia/pleuritis, collapse or alveolar inflammation” value ([2]; Groups 3 to 6, Main Study) was 17/110, the “time to maximum plasma concentration after cessation of dosing” value ([2]; rats, toxicokinetics) was at most 4 h and the Tmax (in vivo [3]; 0.25 mg/kg) was 1.33 days. The “group mean lung Cmax” value (in vivo [3]; 0.25 mg/kg) was 8.0 µg/g, the half-life (in vivo [3]; 0.25 mg/kg) was 12.2 days and the Tmax (in vivo [3]; 1.5 mg/kg) was 1 days. For the same molecule, the “group mean lung Cmax” value (in vivo [3]; 1.5 mg/kg) was 46.6 µg/g, the half-life (in vivo [3]; 1.5 mg/kg) was 10.6 days and the “changes in body weight, hematology, clinical chemistry, food consumption, respiratory measurement” value [4] was “no significant changes”. The clinical signs ([4]; all dose groups including vehicle control) was “salivation”, the “necropsy or histopathology findings attributable to administration” value ([4]; doses up to 8.2 (3.2) mg/kg weekly) was “no necropsy or histopathology findings” and the clinical signs ([5]; dosages up to 14.80 mg/kg amphotericin B alone) was “clinical signs indicative of respiratory distress”. The necropsy findings ([5]; rats, both powders) was “no notable necropsy findings”, the half-life ([6]; 1.1 mg/kg dose level) was 22 days and the half-life ([6]; 12.4 mg/kg dose level) was 34 days. It also gave a premature demise [7] of 3 animals, a median survival time [8, 10] of 10 days and a survival rate [8, 10] of 0%. The median survival time [8, 11] was 9 days, the survival rate [8, 11] was 10% and the median survival time [8, 12] was 10.5 days. The survival rate [8, 12] was 10%, the median survival time [8, 13] was 10 days and the survival rate [8, 13] was 10%. For the same molecule, the “Logrank pairwise comparison of Groups 3-6 with untreated Group 2” value ([8]; all doses and treatment days) was “significant (P<0.001) protection”, the “Kaplan-Meier survival compared with Group 2 (A. fumigatus only)” value (Aspergillus fumigatus; Group 3) was “significant (p<0.05) increase” and the “animals observed wheezing, gasping, or having rales” value (Aspergillus fumigatus; Group 3) was “five”. The “animals with more than 20 grossly visible lung infarctions” value (Aspergillus fumigatus; Group 3, gross necropsy) was 20%, the “animals with visible lung infarction” value (Aspergillus fumigatus; Group 3, gross necropsy) was 80% and the “animals with mycotic hyphae present in lung” value (Aspergillus fumigatus; Group 3, histopathology) was 50%. The average survival time (Aspergillus fumigatus; [14]) was 13 days, the “median day of death or sacrifice” value (Aspergillus fumigatus; [14]) was 14 days and the “animals having 1 or more tissues positive for fungus” value (Aspergillus fumigatus; Group 3, BAL, blood, lung tissue culture, 9 animals) was 44%. For the same molecule, the “effect against A. fumigatus induced mortality” value (Aspergillus fumigatus; conclusion) was “prophylactic effect”, the “animals surviving beyond nine days” value (Aspergillus fumigatus; immunosuppressed, exposed, treated rabbits (FIG. 20)) was 100% and the “effects on body weight, food consumption, ophthalmology, hematology, clinical chemistry, or organ weights” value [9] was “no adverse effects”.
